According to the supplement of paper PMC10307832:

Experiments:
Assay in all cases: relative viability (nuclei count vs DMSO), 5 days (fraction); higher = more cells survive
HCC-78 = tested on: HCC-78
Summary of the method: (§1)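 Medians of duplicate plates are given as relative viability. That measure is the nuclei count in treated wells divided by the count in vehicle wells. Counts were taken on 4× images of lung cancer cell lines in 1536-well plates, 5 days after pin-tool dosing the day after seeding with one drug alone or a fixed anchor-drug dose plus five library-drug doses (not always all listed) in √10 steps.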

COR-L23 = tested on: COR-L23
Summary of the method: as §1

HCC-366 = tested on: HCC-366
Summary of the method: as §1

ChaGo-K-1 = tested on: ChaGo-K-1
Summary of the method: as §1

NCI-H650 = tested on: NCI-H650
Summary of the method: as §1

NCI-H2009 = tested on: NCI-H2009
Summary of the method: as §1

HCC-15 = tested on: HCC-15
Summary of the method: as §1

201T = tested on: 201T
Summary of the method: as §1

A-427 = tested on: A-427
Summary of the method: as §1

NCI-H460 = tested on: NCI-H460
Summary of the method: as §1

NCI-H2126 = tested on: NCI-H2126
Summary of the method: as §1

LCLC-103H = tested on: LCLC-103H
Summary of the method: as §1

NCI-H1734 = tested on: NCI-H1734
Summary of the method: as §1

SW 1573 = tested on: SW 1573
Summary of the method: as §1

NCI-H1993 = tested on: NCI-H1993
Summary of the method: as §1

LOU-NH91 = tested on: LOU-NH91
Summary of the method: as §1

HARA = tested on: HARA
Summary of the method: as §1

LCLC-97TM1 = tested on: LCLC-97TM1
Summary of the method: as §1

NCI-H441 = tested on: NCI-H441
Summary of the method: as §1

NCI-H1650 = tested on: NCI-H1650
Summary of the method: as §1

NCI-H2023 = tested on: NCI-H2023
Summary of the method: as §1

EBC-1 = tested on: EBC-1
Summary of the method: as §1

RERF-LC-KJ = tested on: RERF-LC-KJ
Summary of the method: as §1

HCC-44 = tested on: HCC-44
Summary of the method: as §1

SMILES: CCCCCCCCCCCC1=C(O)C(=O)C=C(O)C1=O [Embelin] + CS(=O)(=O)N1CCN(Cc2cc3nc(-c4cccc5[nH]ncc45)nc(N4CCOCC4)c3s2)CC1 [Pictilisib] (partner 1 µM)
- relative viability (HCC-78; first compound 0.08 µM): 0.263
- relative viability (HCC-78; first compound 0.8 µM): 0.216
- relative viability (HCC-78; first compound 2.53 µM): 0.225
- relative viability (HCC-78; first compound 8 µM): 0.219
- relative viability (COR-L23; first compound 0.08 µM): 0.832
- relative viability (COR-L23; first compound 0.8 µM): 0.958
- relative viability (COR-L23; first compound 2.53 µM): 0.874
- relative viability (COR-L23; first compound 8 µM): 0.93
- relative viability (HCC-366; first compound 0.08 µM): 0.151
- relative viability (HCC-366; first compound 0.8 µM): 0.203
- relative viability (HCC-366; first compound 2.53 µM): 0.149
- relative viability (HCC-366; first compound 8 µM): 0.127
- relative viability (ChaGo-K-1; first compound 0.08 µM): 1
- relative viability (ChaGo-K-1; first compound 0.8 µM): 1.22
- relative viability (ChaGo-K-1; first compound 2.53 µM): 0.626
- relative viability (ChaGo-K-1; first compound 8 µM): 0.428
- relative viability (NCI-H650; first compound 0.08 µM): 0.939
- relative viability (NCI-H650; first compound 0.8 µM): 1.1
- relative viability (NCI-H650; first compound 2.53 µM): 1.06
- relative viability (NCI-H650; first compound 8 µM): 0.896
- relative viability (NCI-H2009; first compound 0.08 µM): 0.947
- relative viability (NCI-H2009; first compound 0.8 µM): 1.09
- relative viability (NCI-H2009; first compound 2.53 µM): 0.659
- relative viability (NCI-H2009; first compound 8 µM): 0.679
- relative viability (HCC-15; first compound 0.08 µM): 0.736
- relative viability (HCC-15; first compound 0.8 µM): 0.802
- relative viability (HCC-15; first compound 2.53 µM): 0.85
- relative viability (HCC-15; first compound 8 µM): 0.743
- relative viability (201T; first compound 0.08 µM): 0.645
- relative viability (201T; first compound 0.8 µM): 0.685
- relative viability (201T; first compound 2.53 µM): 0.649
- relative viability (201T; first compound 8 µM): 0.613
- relative viability (A-427; first compound 0.08 µM): 0.857
- relative viability (A-427; first compound 0.8 µM): 0.862
- relative viability (A-427; first compound 2.53 µM): 0.654
- relative viability (A-427; first compound 8 µM): 0.656
- relative viability (NCI-H460; first compound 0.08 µM): 0.377
- relative viability (NCI-H460; first compound 0.8 µM): 0.409
- relative viability (NCI-H460; first compound 2.53 µM): 0.476
- relative viability (NCI-H460; first compound 8 µM): 0.48
- relative viability (NCI-H2126; first compound 0.08 µM): 0.482
- relative viability (NCI-H2126; first compound 0.8 µM): 0.424
- relative viability (NCI-H2126; first compound 2.53 µM): 0.523
- relative viability (NCI-H2126; first compound 8 µM): 0.467
- relative viability (LCLC-103H; first compound 0.08 µM): 0.591
- relative viability (LCLC-103H; first compound 0.8 µM): 0.652
- relative viability (LCLC-103H; first compound 2.53 µM): 0.614
- relative viability (LCLC-103H; first compound 8 µM): 0.677
- relative viability (NCI-H1734; first compound 0.08 µM): 0.492
- relative viability (NCI-H1734; first compound 0.8 µM): 0.547
- relative viability (NCI-H1734; first compound 2.53 µM): 0.557
- relative viability (NCI-H1734; first compound 8 µM): 0.431
- relative viability (SW 1573; first compound 0.08 µM): 0.475
- relative viability (SW 1573; first compound 0.8 µM): 0.546
- relative viability (SW 1573; first compound 2.53 µM): 0.555
- relative viability (SW 1573; first compound 8 µM): 0.527
- relative viability (NCI-H1993; first compound 0.08 µM): 0.729
- relative viability (NCI-H1993; first compound 0.8 µM): 0.733
- relative viability (NCI-H1993; first compound 2.53 µM): 0.776
- relative viability (NCI-H1993; first compound 8 µM): 0.803
- relative viability (LOU-NH91; first compound 0.08 µM): 0.543
- relative viability (LOU-NH91; first compound 0.8 µM): 0.597
- relative viability (LOU-NH91; first compound 2.53 µM): 0.552
- relative viability (LOU-NH91; first compound 8 µM): 0.459
- relative viability (HARA; first compound 0.08 µM): 0.604
- relative viability (HARA; first compound 0.8 µM): 0.586
- relative viability (HARA; first compound 2.53 µM): 0.489
- relative viability (HARA; first compound 8 µM): 0.653
- relative viability (LCLC-97TM1; first compound 0.8 µM): 0.21
- relative viability (LCLC-97TM1; first compound 2.53 µM): 0.184
- relative viability (LCLC-97TM1; first compound 8 µM): 0.122
- relative viability (NCI-H441; first compound 0.08 µM): 0.437
- relative viability (NCI-H441; first compound 0.8 µM): 0.549
- relative viability (NCI-H441; first compound 2.53 µM): 0.476
- relative viability (NCI-H441; first compound 8 µM): 0.505
- relative viability (NCI-H1650; first compound 0.08 µM): 0.695
- relative viability (NCI-H1650; first compound 0.8 µM): 0.715
- relative viability (NCI-H1650; first compound 2.53 µM): 0.632
- relative viability (NCI-H1650; first compound 8 µM): 0.504
- relative viability (NCI-H2023; first compound 0.08 µM): 0.269
- relative viability (NCI-H2023; first compound 0.8 µM): 0.242
- relative viability (NCI-H2023; first compound 2.53 µM): 0.211
- relative viability (NCI-H2023; first compound 8 µM): 0.243
- relative viability (EBC-1; first compound 0.08 µM): 0.446
- relative viability (EBC-1; first compound 0.8 µM): 0.362
- relative viability (EBC-1; first compound 2.53 µM): 0.446
- relative viability (EBC-1; first compound 8 µM): 0.336
- relative viability (RERF-LC-KJ; first compound 0.08 µM): 0.494
- relative viability (RERF-LC-KJ; first compound 0.8 µM): 0.652
- relative viability (RERF-LC-KJ; first compound 2.53 µM): 0.618
- relative viability (RERF-LC-KJ; first compound 8 µM): 0.587
- relative viability (HCC-44; first compound 0.08 µM): 0.62
- relative viability (HCC-44; first compound 0.8 µM): 0.61
- relative viability (HCC-44; first compound 2.53 µM): 0.678
- relative viability (HCC-44; first compound 8 µM): 0.7
